Assay results taken from US9174995B2, “Pyrrolotriazinone derivatives” (Merck Patent GmbH, priority 2012, dated 2015).

Target: T1, His-tagged Parp-1 (Homo sapiens, UniProt P09874)
T1 construct: purchased Enzo Life Sciences GmbH, Lörrach, Germany
Assay: PARP-1 autoparsylation assay (HTRF)
Assay type: biochemical
Settings: PARP-1 autoparsylation HTRF assay
Excerpt: Description of the PARP1 Assay
Biochemical Activity Testing of PARP-1: Autoparsylation Assay
The autoparsylation assay is run in two steps: the enzymatic reaction in which His-tagged Parp-1 transfers biotinylated ADP-ribose/ADP-ribose to itself from biotinylated NAD/NAD as co-substrate and the detection reaction where a time resolved FRET between cryptate labelled anti-His antibody bound to the His tag of the enzyme and Xlent® labelled-streptavidin bound the biotin-parsylation residue is analysed. The autoparsylation activity is detectable directly via the increase in HTRF signal.
The autoparsylation assay is performed as 384-well HTRF® (Cisbio, Codolet, France) assay format in Greiner low volume nb 384-well microtiter plates. 35 nM His-tagged Parp-1 (human, recombinant, Enzo Life Sciences GmbH, Lörrach, Germany) and a mixture of 125 nM bio-NAD (Biolog, Life science Inst., Bremen, Germany) and 800 nM NAD as co-substrate are incubated in a total volume of 6 μl (100 mM Tris/HCl, 4 mM Mg-chloride, 0.01% IGEPAL® CA630, 1 mM DTT, 0.5% DMSO, pH 8, 13 ng/μl activated DNA (BPS Bioscience, San Diego, US)) in the absence or presence of the test compound (10 dilution concentrations) for 150 min at 23° C. The reaction is stopped by the addition of 4 μl of the Stop/detection solution (70 nM SA-Xlent® (Cisbio, Codolet, France), 2.5 nM Anti-His-K® (Eu-labelled anti-His, Cisbio, Codolet, France) in 50 mM HEPES, 400 mM KF, 0.1% BSA, 20 mM EDTA, pH 7.0). After 1 h incubation at room temperature the HTRF is measured with an Envision multimode reader (Perkin Elmer LAS Germany GmbH) at excitation wavelength 340 nm (laser mode) and emission wavelengths 615 nm and 665 nm. The ratio of the emission signals is determined. The full value used is the inhibitor-free reaction. The pharmacological zero value used is Olaparib (LClabs, Woburn, US) in a final concentration of 1 μM. The inhibitory values (IC50) are determined using either the program Symyx Assay Explorer® or Condosseo® from GeneData.

T1 sequence (P09874 whole entry): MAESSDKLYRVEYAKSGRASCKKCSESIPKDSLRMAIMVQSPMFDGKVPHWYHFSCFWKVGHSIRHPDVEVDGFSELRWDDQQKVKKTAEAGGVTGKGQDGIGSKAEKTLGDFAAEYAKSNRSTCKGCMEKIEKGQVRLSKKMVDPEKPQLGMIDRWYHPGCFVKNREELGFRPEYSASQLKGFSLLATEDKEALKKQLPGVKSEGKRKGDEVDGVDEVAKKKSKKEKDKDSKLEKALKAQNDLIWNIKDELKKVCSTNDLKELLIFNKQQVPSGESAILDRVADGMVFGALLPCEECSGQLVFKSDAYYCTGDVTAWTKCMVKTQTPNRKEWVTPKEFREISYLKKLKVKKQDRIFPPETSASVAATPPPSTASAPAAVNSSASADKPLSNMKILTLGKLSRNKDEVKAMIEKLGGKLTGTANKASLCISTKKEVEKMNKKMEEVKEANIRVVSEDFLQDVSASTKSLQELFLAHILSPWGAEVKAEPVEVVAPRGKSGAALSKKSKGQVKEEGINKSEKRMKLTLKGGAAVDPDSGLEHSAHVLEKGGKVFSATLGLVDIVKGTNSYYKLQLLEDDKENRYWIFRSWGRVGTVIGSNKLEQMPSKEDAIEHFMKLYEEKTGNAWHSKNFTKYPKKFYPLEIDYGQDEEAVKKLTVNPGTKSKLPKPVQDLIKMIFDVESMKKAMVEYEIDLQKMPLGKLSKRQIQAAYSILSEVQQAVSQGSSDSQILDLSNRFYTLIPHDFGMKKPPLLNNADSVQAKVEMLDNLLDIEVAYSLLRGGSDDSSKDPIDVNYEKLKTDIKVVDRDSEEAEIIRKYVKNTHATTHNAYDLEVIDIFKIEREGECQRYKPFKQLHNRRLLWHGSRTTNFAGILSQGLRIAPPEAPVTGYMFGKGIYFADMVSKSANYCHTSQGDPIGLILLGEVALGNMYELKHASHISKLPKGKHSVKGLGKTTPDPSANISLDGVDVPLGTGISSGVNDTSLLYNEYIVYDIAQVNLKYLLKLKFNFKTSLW

`CCC(O)(CC)c1ccc(-c2nn3cccc3c(=O)[nH]2)cc1` [Compound A14, 2-[4-(1-ethyl-1-hydroxy-propyl)-phenyl]-3H-pyrrolo[2,1-f][1,2,4]triazin-4-one] and `CC(C)(O)c1ccc(-c2nn3cccc3c(=O)[nH]2)cc1` [Compound A5, 2-[4-(1-hydroxy-1-methyl-ethyl)-phenyl]-3H-pyrrolo[2,1-f][1,2,4]triazin-4-one] fall in the same range of IC50: 3 to 50 µM for the first, 3 to 50 µM for the second.

`Cc1cc2c(=O)[nH]c(-c3ccc(-c4cnn(C)c4)cc3)nn2c1` [Compound A13, 6-methyl-2-[4-(1-methylpyrazol-4-yl)phenyl]-3H-pyrrolo-[2,1-f][1,2,4]triazin-4-one] and `Cn1cc(-c2ccc(-c3nn4cccc4c(=O)[nH]3)cc2)cn1` [Compound A7, 2-[4-(1-methyl-1H-pyrazol-4-yl)-phenyl]-3H-pyrrolo[2,1-f][1,2,4]triazin-4-one] fall in the same range of IC50: 3 to 50 µM for the first, 3 to 50 µM for the second.

Compared with `CC(C)(O)c1ccc(-c2nn3cc(Cl)cc3c(=O)[nH]2)cc1` [Compound A18, 6-chloro-2-[4-(1-hydroxy-1-methyl-ethyl)-phenyl]-3H-pyrrolo[2,1-f][1,2,4]triazin-4-one], `Cc1cc2c(=O)[nH]c(-c3ccc(C(C)(C)O)cc3)nn2c1` [Compound A11, 2-[4-(1-hydroxy-1-methyl-ethyl)phenyl]-6-methyl-3H-pyrrolo[2,1-f][1,2,4]triazin-4-one] is lower in IC50: 3 to 50 µM for the first, 0.3 to 3 µM for the second.

First: CC(C)(OCCO)c1ccc(-c2nn3cccc3c(=O)[nH]2)cc1 [Compound A15, 2-{4-[1-(2-hydroxy-ethoxy)-1-methyl-ethyl]-phenyl}-3H-pyrrolo[2,1-f][1,2,4]triazin-4-one]
Second: CC(C)(O)c1ccc(-c2nn3cc(F)cc3c(=O)[nH]2)cc1 [Compound A12, 6-fluoro-2-[4-(1-hydroxy-1-methyl-ethyl)phenyl]-3H-pyrrolo[2,1-f][1,2,4]triazin-4-one]
The IC50 of the first is higher: 3 to 50 µM for the first, 0.3 to 3 µM for the second.

`O=c1[nH]c(-c2ccc(C3(O)CCCC3)cc2)nn2cccc12` [Compound A21, 2-[4-(1-hydroxy-cyclopentyl)-phenyl]-3H-pyrrolo[2,1-f][1,2,4]-triazin-4-one] gave an IC50 of 3 to 50 µM.

Target: T2, GST-tagged Tankyrase-2 (873-1166 aa) (Homo sapiens, UniProt Q9H2K2)
T2 construct: GST-tagged Tankyrase-2 (873-1166 aa)
T2 sequence (Q9H2K2 873-1166): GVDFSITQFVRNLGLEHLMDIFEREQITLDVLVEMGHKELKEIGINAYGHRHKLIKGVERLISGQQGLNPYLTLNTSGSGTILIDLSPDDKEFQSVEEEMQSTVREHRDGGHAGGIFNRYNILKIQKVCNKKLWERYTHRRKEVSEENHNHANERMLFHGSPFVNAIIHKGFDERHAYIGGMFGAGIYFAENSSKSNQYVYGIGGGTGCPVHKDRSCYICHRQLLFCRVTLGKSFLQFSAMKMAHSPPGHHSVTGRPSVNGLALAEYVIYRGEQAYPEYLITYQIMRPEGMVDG
Assay: Tankyrase 2 autoparsylation assay (HTRF enzyme assay)
Assay type: biochemical
Settings: not given
Description: Biochemical Activity Testing of Tankyrase 1 and 2: Autoparsylation Assay
The autoparsylation assay is run in two steps: the enzymatic reaction in which GST-tagged Tankyrase-1, resp Tankyrase-2 transferred biotinylated ADP-ribose to itself from biotinylated NAD as co-substrate and the detection reaction where a time resolved FRET between cryptate labelled anti-GST bound to the GST tag of the enzyme and Xlent® labelled-streptavidin bound the biotin-parsylation residue is analysed. The autoparsylation activity was detectable directly via the increase in HTRF signal.
The autoparsylation assay is performed as 384-well HTRF® (Cisbio, Codolet, France) assay format in Greiner low volume nb 384-well microtiter plates and is used for high throughput screen. 250 nM GST-tagged Tankyrase-1 (1023-1327 aa), respectively about 250 nM GST-tagged Tankyrase-2 (873-1166 aa) and 5 μM bio-NAD (Biolog, Life science Inst., Bremen, Germany) as co-substrate are incubated in a total volume of 5 μl (50 mM HEPES, 4 mM Mg-chloride, 0.05% Pluronic F-68, 1.4 mM DTT, 0.5% DMSO, pH 7.7) in the absence or presence of the test compound (10 dilution concentrations) for 90 min at 30° C. The reaction is stopped by the addition of 1 μl 50 mM EDTA solution. 2 μl of the detection solution (1.6 μM SA-Xlent® (Cisbio, Codolet, France), 7.4 nM Anti-GST-K® (Eu-labelled anti-GST, Cisbio, Codolet, France) in 50 mM HEPES, 800 mM KF, 0.1% BSA, 20 mM EDTA, 0.1% CHAPS, pH 7.0) are added. After 1 h incubation at room temperature the HTRF is measured with an Envision multimode reader (Perkin Elmer LAS Germany GmbH) at excitation wavelength 340 nm (laser mode) and emission wavelengths 615 nm and 665 nm. The ratio of the emission signals is determined. The full value used is the inhibitor-free reaction. The pharmacological zero value used is XAV-939 (Tocris) in a final concentration of 5 μM. The inhibitory values (IC50) are determined using either the program Symyx Assay Explorer® or Condosseo® from GeneData.

`CCC(O)(CC)c1ccc(-c2nn3cccc3c(=O)[nH]2)cc1` [Compound A14, 2-[4-(1-ethyl-1-hydroxy-propyl)-phenyl]-3H-pyrrolo[2,1-f][1,2,4]triazin-4-one] and `CC(C)(O)c1ccc(-c2nn3cccc3c(=O)[nH]2)cc1` [Compound A5, 2-[4-(1-hydroxy-1-methyl-ethyl)-phenyl]-3H-pyrrolo[2,1-f][1,2,4]triazin-4-one] cannot be ordered by IC50: < 0.3 µM for the first, < 0.3 µM for the second.

Compared with `Cc1cc2c(=O)[nH]c(-c3ccc(-c4cnn(C)c4)cc3)nn2c1` [Compound A13, 6-methyl-2-[4-(1-methylpyrazol-4-yl)phenyl]-3H-pyrrolo-[2,1-f][1,2,4]triazin-4-one], `Cn1cc(-c2ccc(-c3nn4cccc4c(=O)[nH]3)cc2)cn1` [Compound A7, 2-[4-(1-methyl-1H-pyrazol-4-yl)-phenyl]-3H-pyrrolo[2,1-f][1,2,4]triazin-4-one] is higher in IC50: < 0.3 µM for the first, 0.3 to 3 µM for the second.

`CC(C)(O)c1ccc(-c2nn3cc(Cl)cc3c(=O)[nH]2)cc1` [Compound A18, 6-chloro-2-[4-(1-hydroxy-1-methyl-ethyl)-phenyl]-3H-pyrrolo[2,1-f][1,2,4]triazin-4-one] and `Cc1cc2c(=O)[nH]c(-c3ccc(C(C)(C)O)cc3)nn2c1` [Compound A11, 2-[4-(1-hydroxy-1-methyl-ethyl)phenyl]-6-methyl-3H-pyrrolo[2,1-f][1,2,4]triazin-4-one] cannot be ordered by IC50: < 0.3 µM for the first, < 0.3 µM for the second.

`CC(C)(OCCO)c1ccc(-c2nn3cccc3c(=O)[nH]2)cc1` [Compound A15, 2-{4-[1-(2-hydroxy-ethoxy)-1-methyl-ethyl]-phenyl}-3H-pyrrolo[2,1-f][1,2,4]triazin-4-one] and `CC(C)(O)c1ccc(-c2nn3cc(F)cc3c(=O)[nH]2)cc1` [Compound A12, 6-fluoro-2-[4-(1-hydroxy-1-methyl-ethyl)phenyl]-3H-pyrrolo[2,1-f][1,2,4]triazin-4-one] cannot be ordered by IC50: < 0.3 µM for the first, < 0.3 µM for the second.

With `O=c1[nH]c(-c2ccc(C3(O)CCCC3)cc2)nn2cccc12` [Compound A21, 2-[4-(1-hydroxy-cyclopentyl)-phenyl]-3H-pyrrolo[2,1-f][1,2,4]-triazin-4-one] the IC50 was < 0.3 µM.
